Reference: patent US20040204577A1, “Novel peptide-forming enzyme gene” (Ajinomoto Co., Inc., priority 2003, published 2004)
Where a SMILES comes first, the peptide text is derived from it.

Tests used:
[1] = test system: enzyme derived from Sphingobacterium sp. strain FERM BP-8124 (SP-Sepharose HP fraction enzyme); assay: Enzyme substrate specificity (11), (12): peptide production; assay type: biochemical; conditions: amides and methylamine; carboxy component 100 mM, amine component 150 mM, 0.33 units enzyme, pH 9.0, 25° C., 1.5 hours
How it was run: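 Peptide and oligopeptide formation catalysed by SP-Sepharose HP-fraction enzyme from Sphingobacterium sp. FERM BP-8124; carboxy components used as hydrochloride salts, 0.1% Tween-80 final added with L-Tyr-OMe. Products quantified; "+" denotes detected but unquantified (no standard), "tr" trace.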

[2] = test system: peptide-forming enzyme (Mono S fraction enzyme); assay: Production of L-alanyl-L-glutamine from L-alanine methyl ester and L-glutamine with enzyme fraction; assay type: biochemical, Empedobacter brevis; conditions: for L-Ala-L-Gln: L-alanine methyl ester hydrochloride 100 mM, 18° C., 2 hours
Protocol: On the other hand, there was hardly any production of L-Ala-L-Gln observed in an enzyme-non-added lot, and the […] was only about 0.07 mM after reacting for 120 minutes.

[3] = test system: SP-Sepharose HP fraction enzyme; assay: Production of L-alanyl-L-glutamine using enzyme fraction of Sphingobacterium sp.; assay type: biochemical; conditions: 10 μl fraction (about 27 U/ml) + 90 μl buffer with 111 mM L-alanine methyl ester hydrochloride, 222 mM L-glutamine; pH 9.0, 25° C., 120 minutes
Protocol: The following procedure after centrifugation was carried out either on ice or at 4° C. Sphingobacterium sp. strain FERM BP-8124 (Depositary institution: the independent administrative corporation, National Institute of Advanced Industrial Science and Technology, International Patent Organism Depositary, Address of depositary institution: Chuo Dai-6, 1-1 Higashi 1-Chome, Tsukuba-shi, Ibaraki-ken, Japan, International deposit date: Jul. 22, 2002) was cultured in the same manner as Example 21, and the microbial cells were collected by centrifugation (10,000 rpm, 15 minutes). After washing 2 g of microbial cells with 20 mM Tris-HCl buffer (pH 7.6), they were suspended in 8 ml of the same buffer and subjected to ultrasonic crushing treatment for 45 minutes at 195 W. This ultrasonic crushed suspension was then centrifuged (10,000 rpm, 30 minutes) to remove the crushed cell fragments and obtain a supernatant. This supernatant was dialyzed overnight against 20 mM Tris-HCl buffer (pH 7.6) followed by removal of the insoluble fraction by ultracentrifugation (50,000 rpm, 30 minutes) to obtain a soluble fraction in the form of the supernatant liquid. The resulting soluble fraction was applied to a Q-Sepharose HP column (manufactured by Amersham) pre-equilibrated with Tris-HCl buffer (pH 7.6), and the active fraction was collected from the non-adsorbed fraction. […]

[4] = test system: microbial cells of Empedobacter brevis strain FERM BP-8113; assay: Production of peptide using microbial cells; assay type: cell-based; conditions: 1 mL cell suspension (100 g/L) + 1 mL buffer with 200 mM carboxy component (hydrochloride) and 400 mM amino acid; borate buffer pH 9.0, 10 mM EDTA; 18° C., 2 hours
Protocol: A 50 mL medium (pH 6.2) containing 5 grams (g) of glucose, 5 g of ammonium sulfate, 1 g of monopotassium phosphate, 3 g of dipotassium phosphate, 0.5 g of magnesium sulfate, 10 g of yeast extract and 10 g of peptone in 1 liter (L) was transferred to a 500 mL Sakaguchi flask and sterilized at 115° C. for 15 minutes. This medium was then inoculated with one loopful cells of Empedobacter brevis strain FERM BP-8113 (Depositary institution: the independent administrative corporation, National Institute of Advanced Industrial Science and Technology, International Patent Organism Depositary, Address of depositary institution: Chuo Dai-6, 1-1 Higashi 1-Chome, Tsukuba-shi, Ibaraki-ken, Japan, International deposit transfer date: Jul. 8, 2002) that had been cultured at 30° C. for 16 hours in the same medium, followed by shake culturing at 30° C. for 16 hours and 120 strokes/min.

C[C@H](N)C(=O)N[C@@H](CCC(N)=O)C(=O)O [L-Ala-L-Gln, L-alanyl-L-glutamine] (H-Ala-Gln-OH)
Produced peptide (Table 15-4) [1]: 0.3 mM
Peptide formed, enzyme-added lot ([2]; 100 mM L-alanine methyl ester hydrochloride, 200 mM L-glutamine, 10 mM EDTA, pH 9.0, 18° C., FIG. 3): 83 mM
L-Ala-L-Gln ([2]; L-glutamine 100 mM): 68.2 mM
L-Ala-L-Gln ([2]; L-glutamine 110 mM): 72.1 mM
L-Ala-L-Gln ([2]; L-glutamine 120 mM): 73.3 mM
L-Ala-L-Gln ([2]; L-glutamine 130 mM): 75.1 mM
L-Ala-L-Gln ([2]; L-glutamine 150 mM): 75.5 mM
L-Ala-L-Gln ([2]; L-glutamine 200 mM): 82.0 mM
L-alanyl-L-glutamine formed, enzyme-added lot [3]: 73 mM
Formed peptide [4]: 68.0 mM
